Data taken from patent publication US7087620B2, “Liquid pharmaceutical formulations containing 3,7-diazabicyclo[3,3,1]nonane compounds and methods of treatment relating to anti-arrhythmic events” (Solvay Pharmaceuticals GmbH, priority 2002, dated 2006).

System: patients with atrial fibrillation or flutter
Assay: Placebo-controlled ascending dose study of intravenous tedisamil: conversion to normal sinus rhythm, overall (atrial fibrillation or flutter)
Format: in vivo, human
Conditions: for Conversion to NSR at any time within 2.5 hrs after start of infusion (%) / Conversion to NSR at any time within 2.5 hrs after start of infusion (converted/total): Overall, ITT patient sample, patients with DC cardioversion excluded
Method: A Multi-Center, Double-Blind, Randomized, Placebo-Controlled, Sequential Ascending Dose Groups Study to evaluate the Efficacy and Safety of Intravenous Tedisamil in the Rapid Conversion to Normal Sinus Rhythm in Patients with Atrial Fibrillation or Flutter was performed.
• Tedisamil (0.4 mg/kg body weight) • Tedisamil (0.6 mg/kg body weight) • Placebo • Dosages were given as a 30 minute intravenous infusion regimen. 1. Study Design
This multicenter trial was a double-blind, randomized, placebo-controlled, ascending dose groups study comparing the efficacy and safety of intravenous tedisamil treatment versus placebo in symptomatic patients with atrial fibrillation or flutter (>3 hours and <48 hours). The primary efficacy endpoint of this study was the termination of atrial fibrillation or flutter (for at least 60 seconds) within 2.5 hours after start of the infusion.
Following screening and baseline assessments, eligible patients were randomized to tedisamil or placebo with a sequential dose escalation approach. In the first stage, patients received 0.4 mg tedisamil/kg body weight or placebo over a 30 minutes infusion period, with half the dose infused during the first 10 minutes and half the dose infused over the remaining 20 minutes. After interim safety evaluation, in the second stage, patients received 0.6 mg tedisamil/kg body weight or placebo, with the same infusion regimen.
Patients were discharged from the telemetry unit 24 hours post infusion and safety follow up was to be obtained after 28 days. Blinded reviews of 12-lead ECGs (including 60 seconds rhythm strip) and 24 hour Holters to adjudicate the clinical endpoint (conversion to normal sinus rhythm) were performed centrally according to standard guidelines.
Tedisamil dihydrochloride, 0.4 mg/kg body weight, 0.6.mg/kg body weight was administered intravenously. The total infusion time was 30 minutes, with half the dose infused within 10 minutes, and half the dose infused within the remaining 20 minutes.
The percentage of patients converted to normal sinus rhythm (for at least 60 seconds) at any time within 2.5 hours after the initiation of the infusion of study drug.
The intent-to-treat patient sample was analyzed for efficacy. All tests were two-sided and a p-value <0.05 was considered significant. Differences in percentages of conversion were compared among the treatment groups using the Pearson chi-square statistic. Safety analysis was conducted on the safety patient sample. Numbers and percentages of patients with adverse events were calculated for each treatment group, using MedDRA preferred terms and body systems. Descriptive statistics were summarized by treatment group for changes from baseline in QT, heart rate and blood pressure.
This first clinical study was a Multi-Center, Double-Blind, Randomized, Placebo-Controlled, Sequential Ascending Dose Groups Study to evaluate the Efficacy and Safety of Intravenous Tedisamil in the Rapid Conversion to Normal Sinus Rhythm in Patients with Atrial Fibrillation or Flutter. The active ingredient used was tedisamil dihydrochloride. The study was designed as a phase II study and executed in 35 to 40 centers in 3 to 4 countries. Study duration: Screening: up to 48 hours; treatment (in-patient): single 30-minute infusion; safety follow up: 24 hours (in-patient) with continuous telemetry and 28 day safety follow up.
The following methodology was applied: A multi-center, double-blind, randomized, placebo-controlled, sequential ascending dose groups study to evaluate the efficacy and safety of intravenous tedisamil versus placebo. The study drug was infused over 30 minutes, receiving half the dose within 10 minutes and half the dose within the remaining 20 minutes. The first patient group received 0.4 mg/kg bodyweight (bw), infused as 0.2 mg/kg bw within 10 minutes, continued with 0.2 mg/kg bw infused within 20 minutes. […]

**Q.** Which “Conversion to NSR at any time within 2.5 hrs after start of infusion (%)” value (“Conversion to NSR … (%)” below) (Female, 0.4 mg/kg) does the source give for `C1CCC2(C1)C1CN(CC3CC3)CC2CN(CC2CC2)C1` [Tedisamil, N,N′-dicyclopropylmethyl-9,9-tetramethylene-3,7-diazabicyclo[3,3,1]nonane] here?
**A.** 31.6%

**Q.** And the “Conversion to NSR at any time within 2.5 hrs after start of infusion (converted/total)” value (shortened to “Conversion to NSR … (converted/total)”) (Female, 0.4 mg/kg)?
**A.** 6/19

**Q.** And the “Conversion to NSR … (%)” value (Female, 0.6 mg/kg)?
**A.** 36.4%

**Q.** What about the “Conversion to NSR … (converted/total)” value (Female, 0.6 mg/kg) of the same compound?
**A.** 8/22

**Q.** And the “Conversion to NSR … (%)” value (Male, 0.4 mg/kg)?
**A.** 45.2%

**Q.** And the “Conversion to NSR … (converted/total)” value (Male, 0.4 mg/kg)?
**A.** 19/42

**Q.** And the “Conversion to NSR … (%)” value (Male, 0.6 mg/kg)?
**A.** 61.3%

**Q.** And the “Conversion to NSR … (converted/total)” value (Male, 0.6 mg/kg)?
**A.** 19/31

**Q.** And the “Gender difference in conversion rate” value (first study (Phase II), tedisamil dihydrochloride)?
**A.** male patients show a higher conversion rate compared to women

**Q.** And the “Conversion rates on extension of infusion beyond the times indicated” value (in vivo)?
**A.** did not produce higher conversion rates

**Q.** And the “Average time to cardioversion after the start of tedisamil administration” value (patients with atrial fibrillation or flutter of up to 48 hours duration, iv two-step infusion)?
**A.** 35 min

**Q.** What about the “Conversion of atrial fibrillation and flutter to NSR (in words)” value (two-step infusion regimen) of the same compound?
**A.** effective in conversion of atrial fibrillation and flutter to NSR
